Test system: FLK-1 receptor
Assay: FLK-1 Assay (cellular/catalytic ELISA, VEGF-stimulated phosphotyrosine)
Assay type: cell-based
Design: concentration or dose not given beside the values
Conditions: protocol P.110
Summary of the method: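 NIH3T3 C7#3 cells engineered to express Flk-1 were serum-starved overnight (0.1% FBS), then exposed to compound for 2 h at 37 °C (final dilution 1:200, 0.5% DMSO) before VEGF stimulation. Lysates captured on anti-FLK-1 antiserum plates; phosphotyrosine detected by UB40 antibody/POD-ABTS ELISA versus untreated controls.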

SMILES | Flk Kinase % Inhibition (P.110)
O=C1Nc2ccc(I)cc2C1=Cc1ccc(CO)o1 [10739/B11] | 12.5%
Cc1c(Br)ccc2c1C(=Cc1ccc(CO)o1)C(=O)N2 [10739/C11] | 70.6%
